Results as given in publication PMC9921564, “Novel Indole-Containing Hybrids Derived from Millepachine: Synthesis, Biological Evaluation and Antitumor Mechanism Study” (Molecules, 2023).

Assays:
[1] = test system: HepG2 (human liver carcinoma cell line); test: CCK-8 antiproliferative assay, HepG2; assay type: cell-based; details: 48 h, read-out: IC50, Mean ± SE, HepG2
[2] = test system: C42B (human prostate cancer line); test: CCK-8 antiproliferative assay, C42B; assay type: cell-based; details: 48 h, read-out: IC50, Mean ± SE, C42B
[3] = test system: A549 (human non-small-cell-lung cancer cell line); test: CCK-8 antiproliferative assay, A549; assay type: cell-based; details: 48 h, read-out: IC50, Mean ± SE, A549
[4] = test system: Caski (human epithelial cervical cancer cell line); test: CCK-8 antiproliferative assay, Caski; assay type: cell-based; details: Ca-Ski, 48 h, read-out: IC50, Mean ± SE, Caski
[5] = test system: MCF-7 (human breast carcinoma cell line); test: CCK-8 antiproliferative assay, MCF-7; assay type: cell-based; details: MCF7, 48 h, read-out: IC50, Mean ± SE, MCF-7
[6] = metabolic stability in human liver microsomes; assay type: in vitro ADME; details: for Remaining%: 37 °C, NADPH regenerating system
Experimental: Metabolic stability is one of the most important properties in drug development. In this study, commercially available human liver microsomes were used to evaluate the metabolic stability of compound 14b. After incubation with human liver microsomes at 37 °C in vitro for an indicated time in a buffer solution containing a NADPH regenerating system, the residue of 14b was monitored by HPLC. CA-4 was used as the reference compound. […] As well known, a short half-life means a low bioavailability in vivo and is required for frequent administration with a high dose, which might result in drug accumulation and may produce related toxicity.

[7] = test system: five kinds of human cancer cell lines (A549, Caski, HepG2, C42B, MCF-7); test: CCK-8 assay, panel of five human cancer cell lines; assay type: cell-based; details: 48 h, read-out: IC50 values, range over five human cancer cell lines

Row | SMILES | IC50 [1] | IC50 [2] | IC50 [3] | IC50 [4] | IC50 [5] | t1/2 [6] | Remaining% ([6]; 30 min) | Remaining% ([6]; 60 min) | Remaining% ([6]; 90 min) | Remaining% ([6]; 120 min) | IC50 [7]
1 | COc1cc(C(=O)/C=C/c2cn(C)c3ccccc23)cc2c1OC(C)(C)C=C2 [5b, (E)-1-(8-methoxy-2,2-dimethyl-2H-chromen-6-yl)-3-(1-methyl-1H-indol-3-yl)prop-2-en-1-one] | 461 ± 17 nM | 577 ± 21 nM | 362 ± 17 nM | 729 ± 33 nM | 350 ± 11 nM | – | – | – | – | – | –
2 | COc1ccc(C(=O)c2cccc3c2ccn3C)c2c1C=CC(C)(C)O2 [11b, (5-methoxy-2,2-dimethyl-2H-chromen-8-yl)(1-methyl-1H-indol-4-yl)methanone] | 454 ± 21 nM | 455 ± 15 nM | 208 ± 9 nM | 516 ± 12 nM | 651 ± 24 nM | – | – | – | – | – | –
3 | COc1ccc(C(=O)c2ccc3[nH]ccc3c2)c2c1C=CC(C)(C)O2 [14a, (1H-indol-5-yl)(5-methoxy-2,2-dimethyl-2H-chromen-8-yl)methanone] | 142 ± 14 nM | 89 ± 21 nM | 72 ± 4 nM | 86 ± 9 nM | 82 ± 11 nM | – | – | – | – | – | –
4 | COc1cc(C(=O)c2cccc3[nH]ccc23)cc2c1OC(C)(C)C=C2 [19a, (1H-indol-4-yl)(8-methoxy-2,2-dimethyl-2H-chromen-6-yl)methanone] | 3098 ± 21 nM | 2410 ± 42 nM | 1320 ± 16 nM | 2311 ± 19 nM | 1775 ± 4 nM | – | – | – | – | – | –
5 | COc1ccc(/C=C\c2cc(OC)c(OC)c(OC)c2)cc1O [CA-4, reference compound] | – | – | – | – | – | < 1 h | 70.2% | 28.3% | 20.5% | 18.7% | –
6 | COc1ccc(C(=O)c2ccc(OC)c3c2OC(C)(C)C=C3)cc1 [Compd. A, reference compound] | 758 ± 17 nM | 526 ± 7 nM | 226 ± 35 nM | 892 ± 24 nM | 456 ± 21 nM | – | – | – | – | – | 226 to 892 nM
7 | COc1ccc(/C=C/C(=O)c2ccc(OC)c3c2OC(C)(C)C=C3)cc1 [Millepachine] | 3880 ± 244 nM | 3180 ± 384 nM | 2570 ± 131 nM | 6710 ± 233 nM | 4530 ± 338 nM | – | – | – | – | – | 2570 to 6710 nM

More lines, main results first:

Row | IC50 [1] | IC50 [2] | IC50 [3] | IC50 [4] | IC50 [5] | SMILES | t1/2 [6] | Remaining% ([6]; 30 min) | Remaining% ([6]; 60 min) | Remaining% ([6]; 90 min) | Remaining% ([6]; 120 min) | IC50 [7]
8 | 898 ± 9 nM | 1080 ± 34 nM | 642 ± 81 nM | 1100 ± 32 nM | 1020 ± 15 nM | COc1cc(C(=O)c2cccc3c2ccn3C)cc2c1OC(C)(C)C=C2 [19b, (8-methoxy-2,2-dimethyl-2H-chromen-6-yl)(1-methyl-1H-indol-4-yl)methanone] | – | – | – | – | – | –
9 | 441 ± 71 nM | 209 ± 20 nM | 105 ± 11 nM | 211 ± 12 nM | 121 ± 21 nM | COc1cc(C(=O)c2ccc3[nH]ccc3c2)cc2c1OC(C)(C)C=C2 [21a, (1H-indol-5-yl)(8-methoxy-2,2-dimethyl-2H-chromen-6-yl)methanone] | – | – | – | – | – | –
10 | 97 ± 31 nM | 107 ± 6 nM | 82 ± 10 nM | 106 ± 12 nM | 99 ± 31 nM | COc1cc(C(=O)c2ccc3c(ccn3C)c2)cc2c1OC(C)(C)C=C2 [21b, (8-methoxy-2,2-dimethyl-2H-chromen-6-yl)(1-methyl-1H-indol-5-yl)methanone] | – | – | – | – | – | –
11 | 963 ± 32 nM | 1380 ± 21 nM | 812 ± 22 nM | 1930 ± 35 nM | 1553 ± 14 nM | COc1cc(C(=O)/C=C/c2c[nH]c3ccccc23)cc2c1OC(C)(C)C=C2 [compound 5a, (E)-3-(1H-indol-3-yl)-1-(8-methoxy-2,2-dimethyl-2H-chromen-6-yl)prop-2-en-1-one] | – | – | – | – | – | –
12 | 998 ± 34 nM | 911 ± 34 nM | 631 ± 18 nM | 832 ± 11 nM | 816 ± 45 nM | COc1ccc(C(=O)c2cccc3[nH]ccc23)c2c1C=CC(C)(C)O2 [compound 11a, (1H-indol-4-yl)(5-methoxy-2,2-dimethyl-2H-chromen-8-yl)methanone] | – | – | – | – | – | –
